Assay results reported in patent US20240415918A1, “Polypeptide and its use as a CCK receptor agonist/antagonist” (Centre for Regenerative Medicine & Health, Hong Kong …, priority 2021, published 2024).
Where a SMILES comes first, the peptide text is derived from it. [ ]: non-standard residue; d: D form. Trp(5-OH) = N[C@@H](Cc1c[nH]c2ccc(O)cc12)C(=O)O; dTrp(6-OH) = N[C@H](Cc1c[nH]c2cc(O)ccc12)C(=O)O; sY = N[C@@H](Cc1ccc(OS(=O)(=O)O)cc1)C(=O)O; Phe(3-Br) = N[C@@H](Cc1cccc(Br)c1)C(=O)O; Nle = CCCC[C@H](N)C(=O)O

Legend:
[1] = biological target: T1, CCK-B receptors (CHO-CCK) (Homo sapiens, UniProt P32239); experiment: Calcium flux (Fluo-8) antagonist test on CHO-CCK model cells in presence of CCK8; format: cell-based
T1 construct: expressed in transfected cells; host or cells: CHO (CHO-CCK model cells)
T1 sequence (P32239 1-447): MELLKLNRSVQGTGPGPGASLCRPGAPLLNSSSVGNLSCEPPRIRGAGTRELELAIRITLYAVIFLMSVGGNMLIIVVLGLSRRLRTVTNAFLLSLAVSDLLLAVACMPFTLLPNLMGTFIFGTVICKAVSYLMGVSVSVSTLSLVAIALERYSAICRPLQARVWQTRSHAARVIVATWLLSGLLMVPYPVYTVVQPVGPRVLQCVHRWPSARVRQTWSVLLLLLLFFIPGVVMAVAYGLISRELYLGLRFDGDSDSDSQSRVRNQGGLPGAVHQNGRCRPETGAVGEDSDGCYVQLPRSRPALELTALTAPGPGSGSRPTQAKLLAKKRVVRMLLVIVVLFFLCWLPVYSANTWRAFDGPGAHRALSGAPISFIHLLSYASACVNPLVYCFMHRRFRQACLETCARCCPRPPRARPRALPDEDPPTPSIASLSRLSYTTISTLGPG

[2] = biological target: T1, CCK-B receptors (CHO-CCK); experiment: Calcium flux (Fluo-8) agonist test on CHO-CCK model cells; format: cell-based; details: CHO-CCK cells, Fluo-8 calcium flux
How it was run: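 Agonist-mode Fluo-8 calcium flux read on CHO-CCK cells after dye loading 30 min at 37 °C plus 30 min at room temperature.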

[3] = in presence of 10 nM CCK8, bound in μM

| Structure (SMILES) | EC50 [1, 3] [µM] | EC50 ([2]; bound in μM) [µM] | EC50 ([1]; in presence of 10 nM CCK8) [µM] | EC50 ([2]; 100% control = 20 nM CCK8) [µM] | EC50 ([2]; bound printed in nm in the cell) [µM] |
| --- | --- | --- | --- | --- | --- |
| CCCC[C@H](NC(C)=O)C(=O)NCC(=O)N[C@@H](Cc1c[nH]c2ccccc12)C(=O)N[C@@H](CCSC)C(N)=O [HT-212, Ac-Nle-Gly-Trp-Met-NH2] (Ac-[Nle]GWM-NH2) | > 10 | > 10 |  |  |  |
| CCCC[C@H](NC(=O)[C@H](Cc1c[nH]c2ccccc12)NC(=O)CNC(=O)[C@H](CCCC)NC(C)=O)C(N)=O [HT-213, Ac-Nle-Gly-Trp-Nle-NH2] (Ac-[Nle]GW[Nle]-NH2) |  |  | 4.92 | 0.533 |  |
| CCCC[C@H](NC(=O)[C@H](Cc1c[nH]c2ccccc12)NC(=O)CNC(C)=O)C(=O)N[C@@H](CC(=O)O)C(N)=O [HT-214, Ac-Gly-Trp-Nle-Asp-NH2] (Ac-GW[Nle]D-NH2) | > 10 | > 10 |  |  |  |
| CCCC[C@H](NC(=O)[C@H](Cc1c[nH]c2ccccc12)NC(=O)CNC(C)=O)C(=O)N[C@@H](CC(=O)O)C(=O)N[C@@H](Cc1cccc(Br)c1)C(N)=O [HT-215, Ac-Gly-Trp-Nle-Asp-Phe(3-Br)-NH2] (Ac-GW[Nle]D[Phe(3-Br)]-NH2) |  |  | 0.237 |  | < 0.0001 |
| CSCC[C@H](NC(=O)[C@H](Cc1ccc(OS(=O)(=O)O)cc1)NC(=O)[C@H](CC(=O)O)NC(C)=O)C(=O)NCC(=O)N[C@@H](Cc1c[nH]c2ccccc12)C(N)=O [HT-216, Ac-Asp-Tyr(SO3H)-Met-Gly-Trp-NH2] (Ac-D[sY]MGW-NH2) |  |  | 1.44 | 0.588 |  |
| CSCC[C@H](NC(=O)[C@@H](Cc1c[nH]c2ccccc12)NC(=O)CNC(=O)[C@H](Cc1ccc(O)cc1)NC(=O)[C@H](CC(N)=O)NC(=O)[C@H](CCCCN)NC(=O)[C@@H](NC(=O)[C@H](C)NC(=O)[C@H](CC(N)=O)NC(=O)[C@@H](NC(=O)[C@H](Cc1c[nH]cn1)NC(=O)CNC(=O)[C@H](CO)NC(=O)[C@H](CC(N)=O)NC(=O)[C@H](C)NC(=O)[C@H](Cc1ccc(O)cc1)NC(C)=O)C(C)C)C(C)C)C(=O)N[C@@H](CC(=O)O)C(=O)N[C@@H](Cc1cccc(Br)c1)C(N)=O [HT-218] (Ac-YANSGHVNAVKNYG[dW]MD[Phe(3-Br)]-NH2) |  |  | 0.68 | 0.395 |  |
| CC[C@H](C)[C@H](NC(=O)[C@H](CCC(=O)O)NC(=O)[C@H](CC(N)=O)NC(=O)[C@@H](NC(=O)[C@H](CC(C)C)NC(=O)[C@H](CCC(=O)O)NC(=O)[C@H](CO)NC(=O)[C@H](CCC(=O)O)NC(C)=O)[C@@H](C)O)C(=O)N1CCC[C@H]1C(=O)N[C@@H](C)C(=O)N[C@@H](CCC(=O)O)C(=O)N[C@H](Cc1c[nH]c2ccccc12)C(=O)N[C@@H](CCSC)C(=O)N[C@@H](CC(=O)O)C(=O)N[C@@H](Cc1cccc(Br)c1)C(N)=O [HT-219, Ac-Glu-Ser-Glu-Leu-Thr-Asn-Glu-lle-Pro-Ala-Glu-D-Trp-Met-Asp-Phe(3-Br)-NH2] (Ac-ESELTNEIPAE[dW]MD[Phe(3-Br)]-NH2) |  |  | 2.58 | 0.327 |  |
| CSCC[C@H](NC(=O)[C@@H](Cc1c[nH]c2ccccc12)NC(=O)[C@H](CCC(=O)O)NC(=O)[C@H](CC(C)C)NC(=O)CNC(=O)[C@H](Cc1c[nH]cn1)NC(=O)[C@H](CO)NC(=O)CNC(=O)[C@H](CCCCN)NC(=O)[C@H](CCCNC(=N)N)NC(=O)[C@H](CCCNC(=N)N)NC(=O)[C@H](Cc1c[nH]cn1)NC(=O)[C@H](CCCCN)NC(=O)[C@@H](NC(C)=O)[C@@H](C)O)C(=O)N[C@@H](CC(=O)O)C(=O)N[C@@H](Cc1cccc(Br)c1)C(N)=O [HT-220] (Ac-TKHRRKGSHGLE[dW]MD[Phe(3-Br)]-NH2) |  |  | 2.88 | 8.39 |  |
| CSCC[C@H](NC(=O)[C@H](Cc1ccccc1)NC(C)=O)C(=O)N[C@@H](CC(=O)O)C(=O)N[C@@H](Cc1cccc(Br)c1)C(N)=O [HT-223, Ac-Phe-Met-Asp-Phe(3-Br)-NH2] (Ac-FMD[Phe(3-Br)]-NH2) |  |  | 1.88 | 0.225 |  |
| CSCC[C@H](NC(=O)[C@H](Cc1cccc(Br)c1)NC(C)=O)C(=O)N[C@@H](CC(=O)O)C(=O)N[C@@H](Cc1cccc(Br)c1)C(N)=O [HT-224, Ac-Phe(3-Br)-Met-Asp-Phe(3-Br)-NH2] (Ac-[Phe(3-Br)]MD[Phe(3-Br)]-NH2) |  |  | 0.0803 | 0.0254 |  |
| CCCC[C@H](NC(=O)[C@H](Cc1c[nH]c2ccccc12)NC(C)=O)C(=O)N[C@@H](CC(=O)O)C(=O)N[C@@H](Cc1c[nH]c2ccccc12)C(N)=O [HT-225, Ac-D-Trp-Nle-Asp-Trp-NH2] |  |  | 0.475 | 0.0332 |  |
| CCCC[C@H](NC(=O)[C@@H](Cc1c[nH]c2ccccc12)NC(C)=O)C(=O)N[C@@H](CC(=O)O)C(=O)N[C@@H](Cc1c[nH]c2ccc(O)cc12)C(N)=O [HT-226, Ac-D-Trp-Nle-Asp-(5-HTP)-NH2] (Ac-[dW][Nle]D[Trp(5-OH)]-NH2) | > 10 |  |  | 14.2 |  |
| CCCC[C@H](NC(=O)[C@@H](Cc1c[nH]c2cc(O)ccc12)NC(C)=O)C(=O)N[C@@H](CC(=O)O)C(=O)N[C@@H](Cc1cccc(Br)c1)C(N)=O [HT-227, Ac-(5-HTP)-Nle-Asp-Phe(3-Br)-NH2] (Ac-[dTrp(6-OH)][Nle]D[Phe(3-Br)]-NH2) |  |  | 3.4 | 0.022 |  |
| CCCC[C@H](NC(=O)[C@H](Cc1c[nH]c2ccccc12)NC(C)=O)C(=O)N[C@@H](CC(=O)O)C(=O)N[C@@H](Cc1cn(C)c2ccccc12)C(N)=O [HT-228, Ac-D-Trp-Nle-Asp-(1-Me-Trp)-NH2] |  |  | 3.07 | 0.262 |  |
| CCCC[C@H](NC(=O)[C@H](Cc1c[nH]c2ccccc12)NC(C)=O)C(=O)N[C@@H](CC(=O)O)C(=O)N[C@@H](Cc1c(C)[nH]c2ccccc12)C(N)=O [HT-229, Ac-D-Trp-Nle-Asp-(2-Me-Trp)-NH2] | > 10 |  |  | 8.2 |  |
| CCCC[C@H](NC(=O)[C@@H](Cc1cn(C)c2ccccc12)NC(C)=O)C(=O)N[C@@H](CC(=O)O)C(=O)N[C@@H](Cc1cccc(Br)c1)C(N)=O [HT-230, Ac-(1-Me-Trp)-Nle-Asp-Phe(3-Br)-NH2] |  |  | 0.0575 | 0.00192 |  |
| CCCC[C@H](NC(=O)[C@@H](Cc1c(C)[nH]c2ccccc12)NC(C)=O)C(=O)N[C@@H](CC(=O)O)C(=O)N[C@@H](Cc1cccc(Br)c1)C(N)=O [HT-231, Ac-(2-Me-Trp)-Nle-Asp-Phe(3-Br)-NH2] |  |  | 1.43 | 0.252 |  |
| CCCC[C@H](NC(=O)[C@@H](Cc1cn(C)c2ccccc12)NC(C)=O)C(=O)N[C@@H](CC(=O)O)C(=O)N[C@@H](Cc1cn(C)c2ccccc12)C(N)=O [HT-232, Ac-(1-Me-Trp)-Nle-Asp-(1-Me-Trp)-NH2] |  |  | 3.28 | 0.376 |  |
| CCCC[C@H](NC(=O)[C@@H](Cc1cn(C)c2ccccc12)NC(C)=O)C(=O)N[C@@H](CC(=O)O)C(=O)N[C@@H](Cc1c(C)[nH]c2ccccc12)C(N)=O [HT-233, Ac-(1-Me-Trp)-Nle-Asp-(2-Me-Trp)-NH2] |  | > 10 | 3.65 |  |  |
| CCCC[C@H](NC(=O)[C@@H](Cc1c(C)[nH]c2ccccc12)NC(C)=O)C(=O)N[C@@H](CC(=O)O)C(=O)N[C@@H](Cc1cn(C)c2ccccc12)C(N)=O [HT-234, Ac-(2-Me-Trp)-Nle-Asp-(1-Me-Trp)-NH2] |  |  | 4 | 5.46 |  |
| CCCC[C@H](NC(=O)[C@@H](Cc1c(C)[nH]c2ccccc12)NC(C)=O)C(=O)N[C@@H](CC(=O)O)C(=O)N[C@@H](Cc1c(C)[nH]c2ccccc12)C(N)=O [HT-235, Ac-(2-Me-Trp)-Nle-Asp-(2-Me-Trp)-NH2] | > 10 | > 10 |  |  |  |
| CCCC[C@H](NC(=O)[C@@H](Cc1cccc(Br)c1)NC(C)=O)C(=O)N[C@@H](CC(=O)O)C(=O)N[C@@H](Cc1cccc(Br)c1)C(N)=O [HT-236, Ac-Phe(3-Br)-Nle-Asp-Phe(3-Br)-NH2] |  |  | 0.357 | 0.0977 |  |
| CCCC[C@H](NC(=O)[C@@H](Cc1cccc(Br)c1)NC(C)=O)C(=O)N[C@@H](CCC(=O)O)C(=O)N[C@@H](Cc1cccc(Br)c1)C(N)=O [HT-237, Ac-Phe(3-Br)-Nle-Glu-Phe(3-Br)-NH2] | > 10 | > 10 |  |  |  |
| CCCC[C@H](NC(=O)[C@H](Cc1c[nH]c2ccccc12)NC(C)=O)C(=O)N[C@@H](CCC(=O)O)C(=O)N[C@@H](Cc1cccc(Br)c1)C(N)=O [HT-238, Ac-D-Trp-Nle-Glu-Phe(3-Br)-NH2] |  |  | 28.2 | 0.0344 |  |
| CCCC[C@H](NC(=O)[C@H](Cc1c[nH]c2ccccc12)NC(C)=O)C(=O)N[C@@H](CCC(=O)O)C(=O)N[C@@H](Cc1c[nH]c2ccc(O)cc12)C(N)=O [HT-239, Ac-D-Trp-Nle-Glu-(5-HTP)-NH2] (Ac-W[Nle]E[Trp(5-OH)]-NH2) | > 10 | > 10 |  |  |  |
